The text below walks through data of ChEMBL document CHEMBL5150027, “The inhibition of monoamine oxidase by 2H-1,4-benzothiazin-3(4H)-ones” (Bioorg Med Chem Lett, 2022).

pIC50, pKi: −log10 of the molar value.

Assay [1] has as its target T1, Amine oxidase [flavin-containing] A (Homo sapiens, UniProt P21397).
T1 sequence (P21397 whole entry): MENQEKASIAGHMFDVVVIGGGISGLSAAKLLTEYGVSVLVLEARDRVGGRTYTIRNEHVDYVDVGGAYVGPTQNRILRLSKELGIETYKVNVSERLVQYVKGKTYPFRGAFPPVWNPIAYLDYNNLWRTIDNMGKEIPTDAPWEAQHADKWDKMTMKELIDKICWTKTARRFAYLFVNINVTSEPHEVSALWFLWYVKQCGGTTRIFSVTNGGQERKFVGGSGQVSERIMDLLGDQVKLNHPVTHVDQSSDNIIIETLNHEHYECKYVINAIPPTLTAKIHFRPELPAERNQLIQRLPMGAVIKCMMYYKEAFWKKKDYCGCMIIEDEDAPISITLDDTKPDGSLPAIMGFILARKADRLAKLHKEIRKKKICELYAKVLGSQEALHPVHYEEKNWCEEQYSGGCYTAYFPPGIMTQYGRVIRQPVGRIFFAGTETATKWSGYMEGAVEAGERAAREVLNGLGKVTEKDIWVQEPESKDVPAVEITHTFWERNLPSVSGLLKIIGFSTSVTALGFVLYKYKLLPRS
Nature of the assay: Inhibition of recombinant human MAO-A using kynuramine as substrate assessed as inhibition of 4-hydroxyquinoline formation incubated for 20 mins by fluorescence spectrophotometric analysis.

The target in assay [2] is T2, Amine oxidase [flavin-containing] B (Homo sapiens, UniProt P27338).
T2 sequence (P27338 whole entry): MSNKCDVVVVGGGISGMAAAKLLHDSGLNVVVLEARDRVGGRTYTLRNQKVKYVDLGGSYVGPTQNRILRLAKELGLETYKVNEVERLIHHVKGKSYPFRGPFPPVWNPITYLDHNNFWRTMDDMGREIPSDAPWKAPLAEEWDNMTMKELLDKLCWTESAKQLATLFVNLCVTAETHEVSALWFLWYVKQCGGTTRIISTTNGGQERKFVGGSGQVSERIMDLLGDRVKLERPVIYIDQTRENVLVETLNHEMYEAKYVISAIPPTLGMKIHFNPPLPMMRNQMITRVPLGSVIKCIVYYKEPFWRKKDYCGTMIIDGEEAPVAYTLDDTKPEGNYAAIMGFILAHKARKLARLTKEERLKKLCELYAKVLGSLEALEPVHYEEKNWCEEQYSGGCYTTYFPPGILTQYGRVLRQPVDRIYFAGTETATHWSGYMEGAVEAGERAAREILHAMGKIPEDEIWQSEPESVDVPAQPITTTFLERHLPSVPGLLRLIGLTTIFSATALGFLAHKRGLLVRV

The target in a further assay is D-amino-acid oxidase (Sus scrofa, UniProt P00371). Nature of the assay: Inhibition of porcine kidney DAAO using D-serine as substrate assessed as H2O2 formation by amplex red and peroxidase-coupled continuous fluorescence spectrophotometric analysis.
In assay [3] the target is T2, Amine oxidase [flavin-containing] B. The assay is described as follows: Competitive inhibition of recombinant human MAO-B using kynuramine as substrate assessed as enzyme-inhibitor dissociation constant at varying substrate concentration by Lineweaver-burk plot analysis.

D-amino-acid oxidase, sequence (P00371 whole entry): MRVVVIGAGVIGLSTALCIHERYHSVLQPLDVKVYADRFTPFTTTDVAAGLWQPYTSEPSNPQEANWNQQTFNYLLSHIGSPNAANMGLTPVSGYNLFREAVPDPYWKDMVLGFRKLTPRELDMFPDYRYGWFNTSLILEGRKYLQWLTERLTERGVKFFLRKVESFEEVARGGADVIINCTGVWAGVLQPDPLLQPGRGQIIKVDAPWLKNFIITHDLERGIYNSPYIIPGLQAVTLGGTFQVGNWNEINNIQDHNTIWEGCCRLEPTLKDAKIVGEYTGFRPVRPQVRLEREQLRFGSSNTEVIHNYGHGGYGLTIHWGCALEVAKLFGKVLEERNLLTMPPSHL

In the case of `O=C1CSc2cc(OCCc3ccccc3)ccc2N1`, the pIC50 in assay [1] is 4.88; in assay [2] it was 6.78.

As for `COc1ccc2c(c1)SCC(=O)N2`, the pIC50 in assay [1] was 4.68; in assay [2], 4.37.

On to `O=C1CSc2cc(OCc3ccc(Cl)cc3)ccc2N1`, for which the values for the pIC50 (at D-amino-acid oxidase; in assay [1]; in assay [2]) were 4.14, 4.61 and 8.57, respectively.

With `O=C1CSc2cc(OCc3ccccc3)ccc2N1`, the values for the negative logarithm of the IC50 (pIC50) in assay [1] and in assay [2] were 5.09 and 7.15, respectively.

On to `O=C1CSc2cc(O)ccc2N1`, for which the figures for the pIC50 (on D-amino-acid oxidase; in assay [1]; in assay [2]) were 5.38, 4.72 and 4.70, respectively.

With `O=C1CSc2cc(OCCCc3ccccc3)ccc2N1`, the values for the pIC50 in assay [1] and in assay [2] were 4.01 and 7.70, respectively.

Turning to `O=C1CSc2cc(OCc3ccc(Br)cc3)ccc2N1`, the negative logarithm of the IC50 (pIC50) was 4.81 in assay [1] and 8.39 in assay [2].

Turning to `CCCOc1ccc2c(c1)SCC(=O)N2`, the pIC50 in assay [1] was 5.19; in assay [2] it was 5.54.

Regarding `N#Cc1ccc(COc2ccc3c(c2)SCC(=O)N3)cc1`, the pIC50 was 4.32 at D-amino-acid oxidase, 6.15 in assay [1] and 8.02 in assay [2]. In assay [3], the pKi is 8.17.

Turning to `Cc1ccc(COc2ccc3c(c2)SCC(=O)N3)cc1`, the pIC50 in assay [2] is 8.09.

Take `O=C1CSc2cc(OCC3CCCCC3)ccc2N1`: the figures for the pIC50 in assay [1] and in assay [2] were 5.93 and 7.62, respectively.

Usually pIC50 stands for the IC50 on a negative log10 scale, so that one unit is a factor of ten. In general, pKi refers to −log10 of the Ki, conventionally taken in molar units.
